Values of other authors, collected in US20220257562A1, “METHOD FOR IMPROVING ENDOMETRIOSIS AND METHOD FOR PRODUCING A MATERIAL USED THEREFOR” (NICHIMO CO., LTD., priority 2017, published 2022).

Key:
MCF-7 = conditions: for effect on tamoxifen: MCF-7 / mammary tumors, Non-patent Literature 15, 17; for cell proliferation of estrogen-dependent breast cancer cells (MCF-7): Non-patent Literature 14, 16
ERβ = ERβ (Homo sapiens, UniProt Q92731); conditions: Non-Patent Literature 23
Sequence of ERβ (Q92731 whole entry, species assumed): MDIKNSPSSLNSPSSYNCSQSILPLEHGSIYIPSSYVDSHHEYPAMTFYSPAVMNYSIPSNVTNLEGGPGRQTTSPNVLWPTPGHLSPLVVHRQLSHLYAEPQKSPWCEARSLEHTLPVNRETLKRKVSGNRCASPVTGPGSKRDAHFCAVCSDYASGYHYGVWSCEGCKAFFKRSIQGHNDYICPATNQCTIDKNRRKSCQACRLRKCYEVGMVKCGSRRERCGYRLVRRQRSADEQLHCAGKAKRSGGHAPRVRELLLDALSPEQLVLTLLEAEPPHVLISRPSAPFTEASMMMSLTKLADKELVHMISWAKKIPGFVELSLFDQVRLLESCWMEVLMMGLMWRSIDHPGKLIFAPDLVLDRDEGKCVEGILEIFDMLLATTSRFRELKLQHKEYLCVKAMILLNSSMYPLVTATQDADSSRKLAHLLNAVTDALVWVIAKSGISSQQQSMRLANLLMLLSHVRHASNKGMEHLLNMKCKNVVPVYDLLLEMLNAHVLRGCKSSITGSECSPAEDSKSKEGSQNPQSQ

SMILES	effect on tamoxifen (MCF-7)	cell proliferation of estrogen-dependent breast cancer cells (MCF-7) (MCF-7)	binding to ERβ (ERβ)
O=c1c(-c2ccc(O)cc2)coc2cc(O)cc(O)c12 [Genistein, genistein]	attenuates the inhibitory effect of tamoxifen	promotes cell proliferation	
O=c1c(-c2ccc(O)cc2)coc2cc(O)ccc12 [daidzein]	improved the therapeutic effect of tamoxifen	suppressed the proliferation	binds weakly
